Molecules are shown by their SMILES.

Usually melting point stands for the temperature of the solid-liquid transition. `COc1ccc2nccc([C@@H]3CN(CCCNS(=O)(=O)c4ccc5c(c4)NC(=O)CO5)C(=O)O3)c2c1` registered a melting point of 150 to 155 °C.
`COc1ccc2nccc([C@@H]3CN(CCCNS(=O)(=O)c4ccc5c(c4)NC(=O)CCS5)C(=O)O3)c2c1`: the melting point was 128 to 130 °C.

Values taken from US7491714B2 (dated 2009).
